The target of one series is T1, LYCHOS (Homo sapiens, UniProt Q7Z3F1).
T1 sequence (Q7Z3F1 1-870): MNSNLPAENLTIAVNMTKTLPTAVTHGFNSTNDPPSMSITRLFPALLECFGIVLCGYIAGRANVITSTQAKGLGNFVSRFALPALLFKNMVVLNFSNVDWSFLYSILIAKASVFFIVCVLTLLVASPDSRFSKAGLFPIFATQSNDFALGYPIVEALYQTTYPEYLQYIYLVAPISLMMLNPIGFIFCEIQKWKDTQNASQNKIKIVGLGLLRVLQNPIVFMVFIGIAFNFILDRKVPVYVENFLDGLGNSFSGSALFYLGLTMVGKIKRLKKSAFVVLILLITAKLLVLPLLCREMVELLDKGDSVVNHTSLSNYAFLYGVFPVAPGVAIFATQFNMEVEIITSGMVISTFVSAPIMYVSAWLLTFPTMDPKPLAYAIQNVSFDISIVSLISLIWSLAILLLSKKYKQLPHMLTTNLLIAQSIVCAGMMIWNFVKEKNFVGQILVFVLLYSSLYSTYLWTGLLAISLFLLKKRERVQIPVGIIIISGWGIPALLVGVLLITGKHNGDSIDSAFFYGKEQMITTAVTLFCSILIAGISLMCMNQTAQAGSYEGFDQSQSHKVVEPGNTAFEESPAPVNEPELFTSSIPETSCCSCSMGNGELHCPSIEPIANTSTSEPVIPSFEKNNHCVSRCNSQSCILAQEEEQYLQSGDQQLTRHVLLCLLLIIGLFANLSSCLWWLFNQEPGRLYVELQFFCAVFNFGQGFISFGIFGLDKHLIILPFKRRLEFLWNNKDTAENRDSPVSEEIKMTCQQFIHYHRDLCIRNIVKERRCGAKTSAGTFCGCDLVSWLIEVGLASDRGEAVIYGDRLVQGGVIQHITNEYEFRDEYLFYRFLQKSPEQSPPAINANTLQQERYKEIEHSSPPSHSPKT
In words: SPR Kd and cryo-EM structure of the complex. Format: binding.

The series “cryo-EM structure” concerns the molecule itself. In words: cryo-EM structure.

Where a name gives a salt, the structure may show the parent alone.

The Kd is the equilibrium constant for the complex coming apart. The low end stands for tighter binding, the high end for weaker binding. The molecule `O=S(=O)(O)Oc1c[nH]c2ccccc12` [IS, indoxyl sulfate] showed a dissociation constant (Kd) on LYCHOS of about 150 µM.

B1: human LYCHOS (lysosomal cholesterol signaling protein), C-terminal FLAG and 10×His tags (natural protein, UniProt Q7Z3F1 1-870, looked up)
chain: MNSNLPAENLTIAVNMTKTLPTAVTHGFNSTNDPPSMSITRLFPALLECFGIVLCGYIAGRANVITSTQAKGLGNFVSRFALPALLFKNMVVLNFSNVDWSFLYSILIAKASVFFIVCVLTLLVASPDSRFSKAGLFPIFATQSNDFALGYPIVEALYQTTYPEYLQYIYLVAPISLMMLNPIGFIFCEIQKWKDTQNASQNKIKIVGLGLLRVLQNPIVFMVFIGIAFNFILDRKVPVYVENFLDGLGNSFSGSALFYLGLTMVGKIKRLKKSAFVVLILLITAKLLVLPLLCREMVELLDKGDSVVNHTSLSNYAFLYGVFPVAPGVAIFATQFNMEVEIITSGMVISTFVSAPIMYVSAWLLTFPTMDPKPLAYAIQNVSFDISIVSLISLIWSLAILLLSKKYKQLPHMLTTNLLIAQSIVCAGMMIWNFVKEKNFVGQILVFVLLYSSLYSTYLWTGLLAISLFLLKKRERVQIPVGIIIISGWGIPALLVGVLLITGKHNGDSIDSAFFYGKEQMITTAVTLFCSILIAGISLMCMNQTAQAGSYEGFDQSQSHKVVEPGNTAFEESPAPVNEPELFTSSIPETSCCSCSMGNGELHCPSIEPIANTSTSEPVIPSFEKNNHCVSRCNSQSCILAQEEEQYLQSGDQQLTRHVLLCLLLIIGLFANLSSCLWWLFNQEPGRLYVELQFFCAVFNFGQGFISFGIFGLDKHLIILPFKRRLEFLWNNKDTAENRDSPVSEEIKMTCQQFIHYHRDLCIRNIVKERRCGAKTSAGTFCGCDLVSWLIEVGLASDRGEAVIYGDRLVQGGVIQHITNEYEFRDEYLFYRFLQKSPEQSPPAINANTLQQERYKEIEHSSPPSHSPKT
modifications: N-acetylglucosamine linked to Asn309
Usually stoichiometry N stands for a count of units in the complex or per binding partner. Regarding B1, the “stoichiometry N” value in “cryo-EM structure” was determined as 2.

For the origin of these results see article PMC11928621 (Nature Communications, 2025).
